The text below walks through data of a melting point compilation (Tetko et al.).

Each structure is given as a SMILES string.

What is called melting point is the temperature of the solid-liquid transition. As to `Brc1cccc(Oc2ccc(Br)cc2Br)c1`, the melting point was less than 20 °C.
The same measure for `O=C(O)c1c(Br)cccc1Br`: 150 °C; for `CNC(=O)C(C)(C(C)C)C(C)C`: 60 °C; for `CCCCCCCCCCCCCCCCCCCCc1ccccc1`: 44 °C.
The figure for `O=C(O)c1cccc(SC(F)(F)F)c1` is 73 °C; for `Cn1ccnc1C(=O)O` it is 104 to 106 °C; for `O=S(=O)(N(c1ccccc1)S(=O)(=O)C(F)(F)F)C(F)(F)F` it is 99 to 105 °C.
In turn, `CC(C)CCCC(C)C1CC[C@@]2(C)C3=CCC4[C@H](C)[C@@H](O)CC[C@]4(C)C3=CC[C@]12C` (some centres undefined) had a melting point of 123 °C.
The same measure for `Cc1cc(C(C)(C)C)nc(C(C)(C)C)c1`: 33 to 36 °C; for `N#Cc1ccnc(I)c1`: 79 °C.
The same measure for `Nc1ccc(Cl)cc1C(=O)c1cccc(O)c1`: 190 to 192 °C.
The figure for `COC(=O)c1c(C)noc1-c1cc(C)on1` is 84 to 86 °C.
For the molecule `CCOC(=O)c1cc2ccccc2oc1=O`, the melting point turned out to be 94 °C.
The figure for `CN(C)CCCNc1c2ccccc2nc2cccc([N+](=O)[O-])c12` is 134 °C; for `Sc1nc(S)nc(S)n1` it is 300 °C; for `CC(=O)/C(=C/Nc1ccccc1)Cc1ccccc1` it is 132 °C.
`Clc1ccc2c(c1)Oc1cc(Cl)c(Cl)cc1O2` came in with a melting point of 162 °C.
`O=C(C=Cc1ccc(-c2ccccc2[N+](=O)[O-])o1)c1ccco1` gave a melting point of 168 to 169 °C.
The figure for `Cc1ccc(C)c(CCC(C)(C)C(=O)O)c1` is 78 °C.
On to `CC(C)CCCC(C)CCCC(C)CCCCC(C)CCCC(C)CCCC(C)C` (centres undefined), for which the melting point is -38 °C.
Regarding `O=C(O)C1(O)c2ccccc2-c2ccc(Cl)cc21` (centres undefined), the melting point was 152 °C.
The same measure for `CC(=O)C(=NNc1cccc([N+](=O)[O-])c1)C(C)=O`: 184 °C; for `CC1NC(=O)NC1CCCCCC(=O)O` (centres undefined): 157 °C.
The same measure for `CCOc1ccc2nc3cc(N)ccc3c(N)c2c1`: 226 °C.
Consider `O=C(O)C1=CC(Cl)=C(Cl)[C@H](O)[C@@H]1O`, for which the melting point lay within 195 to 200 °C.
In turn, `O=C(Cl)c1ccc(Cl)nc1` yielded a melting point of 50 °C.
As to `COc1c(OC)c(=O)c1=O`, the melting point lay within 55 to 57 °C.
The same measure for `O=C1C(=Cc2ccco2)SC(=S)N1CN1CCCCC1`: 120 to 121 °C; for `CCOC(=O)c1cnc(SC)nc1Cl`: 62 °C; for `O=[N+]([O-])c1cccc2cn[nH]c12`: 187 °C.
`CSC(S)=NCc1ccc(CN)cc1`: the melting point was 152 to 153 °C.
For `O=S(=O)(Cl)c1ccsc1`, the melting point is 44 to 45 °C.
The same measure for `CCOC(=O)CC[C@H](NC(=O)c1ccc(N)cc1)C(=O)OCC`: 141 °C; for `Cc1ccc(CC#N)cc1`: 18 °C.
The figure for `O=[N+]([O-])c1cccc(C=Cc2ccccc2)c1` is 102 °C; for `O=C(O)c1cc(Br)cc2c1OCC2` it is 230 °C.
For the molecule `O=C1OC(c2ccc([N+](=O)[O-])cc2)=NC1=Cc1ccccc1`, the melting point is 236 °C.
The figure for `Cc1c(N/N=C(/C(=O)c2cccc3ccccc23)S(=O)(=O)c2ccccc2)c(=O)n(-c2ccccc2)n1C` is 110 °C; for `COc1ccc(C(C)=O)c(OC)c1OC` it is 15.8 °C.
The figure for `N#Cc1c2ccccc2c(C#N)c2ccccc12` is 337 °C; for `O=C(O)CCCCCCCCCCCCCCO` it is 97 to 99 °C; for `CCCC(=O)c1ccc(O)cc1` it is 91 °C.
The figure for `BrCc1ccc(-c2ccsc2)cc1` is 107 to 109 °C.
For the molecule `NS(=O)(=O)c1ccccc1[N+](=O)[O-]`, the melting point is 191 °C.
